These results are taken from paper PMC10620212, “Postprandial glycemic and lipidemic effects of black rice anthocyanin extract fortification in foods of varying macronutrient compositions and matrices” (NPJ Science of Food, 2023).

In data set [1] the target is α-glucosidase. Briefly: In-vitro starch hydrolase inhibition (starch turbidity assay), α-glucosidase. The settings on record: mean (SD). The class given is biochemical. As for the experimental part:
(§1) To determine the inhibitor activities of major ACN species, 50 μL of enzyme solution was mixed with 50 μL of inhibitor solution of different concentrations and incubated for 15 min at 37 °C. The reaction was initiated by mixing 100 μL of 1% gelatinized wheat starch solution into the enzyme-inhibitor mixtures. Changes in turbidity were immediately monitored at 660 nm for 2 h in a microplate reader preincubated at 37 °C, with one reading per minute, while shaking in between readings to minimize starch sedimentation. Enzyme activities were inversely proportional to the AUC for turbidity readings. The percentage inhibition (%I) was defined as:7 %I=(AUCSample−AUCControl)/AUCSample×100 in which AUCSample is the area under the curve for the inhibitor, and AUCControl is the area under the curve without inhibitors.

Data set [2] addresses T1, α-amylase (Sus scrofa, UniProt P00690).
T1 sequence (P00690 16-511): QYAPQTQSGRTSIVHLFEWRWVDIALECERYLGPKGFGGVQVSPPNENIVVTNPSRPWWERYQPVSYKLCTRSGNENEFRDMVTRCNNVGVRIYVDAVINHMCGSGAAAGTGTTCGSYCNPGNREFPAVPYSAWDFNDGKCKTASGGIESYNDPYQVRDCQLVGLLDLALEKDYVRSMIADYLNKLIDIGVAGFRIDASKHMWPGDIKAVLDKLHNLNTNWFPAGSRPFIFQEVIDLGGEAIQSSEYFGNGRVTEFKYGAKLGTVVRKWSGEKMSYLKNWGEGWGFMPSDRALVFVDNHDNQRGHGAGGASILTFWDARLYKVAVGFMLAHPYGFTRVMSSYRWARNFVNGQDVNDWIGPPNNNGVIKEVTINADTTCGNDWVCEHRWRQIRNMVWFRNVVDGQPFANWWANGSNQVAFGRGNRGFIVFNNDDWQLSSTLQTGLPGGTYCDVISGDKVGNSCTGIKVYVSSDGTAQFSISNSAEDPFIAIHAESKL
Briefly: In-vitro starch hydrolase inhibition (starch turbidity assay), α-amylase. The class given is biochemical, porcine. Particulars: mean (SD). As for the experimental part: as §1

Data set [3] can be described thus: Bread trial: plasma bioavailability of anthocyanins and phenolic metabolites. The class given is in vivo, human. Particulars: for change in plasma concentration, mean difference between 60 and 120 min: 4-BB group. As for the experimental part:
Bioavailability analysis was performed in the Bread trial according to the methods by Kay, et al.[58]. […] The sample was drained off in a vacuum manifold and washed with 2 volumes of acidified water. The remaining ACN extract was eluted with 6 mL acidified methanol, and subsequently brought to dryness at 25 °C under a continuous stream of nitrogen gas. The residue was dissolved in 200 μL of 0.1% v/v formic acid and filtered through a 13 mm 0.22 μm PTFE hydrophilic syringe filter. The resulting solution was analyzed using a reverse-phased C18 Sunfire column (250 × 4.6 mm/5 μm; Waters, Wexford, Ireland) on an HPLC system (Shimadzu Prominence, Shimadzu, Kyoto, Japan) connected with a DAD. The injection volume was 50 μL. The flow rate and oven temperature were maintained at 1 mL/min at 25 °C. A gradient elution process was applied (mobile phase A: 5% v/v formic acid; mobile phase B: 100% acetonitrile): 0% B for 5 min, 10% B at 20 min, 13% B at 40 min, 20% B at 44 min, 25% B at 50 min, and 100% B at 55 min. Detection of ACNs was performed at 520 nm; while its metabolites, ferulic acid, vanillic acid, and protocatechuic acid were detected at 280 nm. Identification and quantification of each ACN and metabolite were based on matching the retention time and peak areas with the external calibration curve of respective standards.

Details of data set [4]: method as in PMID 24602005, PMID 25347327. The settings on record: previous reports; cited from earlier work.

With `OC[C@H]1O[C@@H](Oc2cc3c(O)cc(O)cc3[o+]c2-c2ccc(O)c(O)c2)[C@H](O)[C@@H](O)[C@@H]1O` [C3G, cyanidin-3-glucoside], the values for the IC50 in data set [1] and in data set [2] were 1120 µM and 364 µM, respectively.

As for `C[C@@H]1O[C@@H](OC[C@H]2O[C@@H](Oc3cc4c(O)cc(O)cc4[o+]c3-c3ccc(O)c(O)c3)[C@H](O)[C@@H](O)[C@@H]2O)[C@H](O)[C@H](O)[C@H]1O` [C3R, cyanidin-3-rutinoside], the IC50 (in general, the concentration that gives 50% inhibition) in data set [1] came to 904 µM; in data set [2] it was 483 µM.

Consider `COc1cc(/C=C/C(=O)O)ccc1O` [FA, ferulic acid], for which, in data set [3], the “change in plasma concentration, mean difference between 60 and 120 min” value is given as 1.08. In addition, the “time of peak plasma concentrations” value in data set [4] is 0.5 to 1 h.

Consider `COc1cc(-c2[o+]c3cc(O)cc(O)c3cc2O[C@@H]2O[C@H](CO)[C@@H](O)[C@H](O)[C@H]2O)ccc1O` [P3G, peonidin-3-glucoside], for which the IC50 is 1340 µM in data set [1] and 649 µM in data set [2].

For `O=C(O)c1ccc(O)c(O)c1` [PCA, protocatechuic acid], the “share of total polyphenols in plasma at 60 min peak concentrations” value in data set [3] (Bread trial) is given as 93.9%. In data set [4], the “time of peak plasma concentrations” value is 1 to 2 h.

Turning to `COc1cc(C(=O)O)ccc1O` [VA, vanillic acid], the “change in plasma concentration, mean difference between 60 and 120 min” value in data set [3] is 0.439. In data set [4], the “time of peak plasma concentrations” value was 0.5 to 1 h.
